This note sets out measurements from BindingDB's records for PubMed 35202969 (Maharishi Markandeshwar (Deemed To Be University), 2022).

For this data set, the target named is CYP3A4 (Homo sapiens, UniProt P08684). Nature of the data set: Inhibition of CYP3A4 in human liver microsomes using midazolam as substrate. The conditions noted are these: probe midazolam.
Sequence of CYP3A4 (P08684 whole entry): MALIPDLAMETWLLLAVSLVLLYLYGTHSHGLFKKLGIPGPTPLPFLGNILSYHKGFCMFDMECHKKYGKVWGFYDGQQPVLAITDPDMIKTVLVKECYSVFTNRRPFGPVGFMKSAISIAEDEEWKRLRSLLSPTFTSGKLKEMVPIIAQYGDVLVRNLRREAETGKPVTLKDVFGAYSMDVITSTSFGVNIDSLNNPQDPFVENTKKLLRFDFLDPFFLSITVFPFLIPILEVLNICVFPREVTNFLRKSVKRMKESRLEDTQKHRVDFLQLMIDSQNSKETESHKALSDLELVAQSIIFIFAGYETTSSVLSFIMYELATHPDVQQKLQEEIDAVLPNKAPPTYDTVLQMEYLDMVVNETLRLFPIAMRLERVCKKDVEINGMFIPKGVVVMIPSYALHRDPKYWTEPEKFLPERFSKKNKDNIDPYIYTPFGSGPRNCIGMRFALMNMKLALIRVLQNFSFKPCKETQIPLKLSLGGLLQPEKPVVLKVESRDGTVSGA

In turn, `COc1c(N2CC[C@@H](C3(N)CC3)C2)ccc2c(=O)c(C(=O)O)cn([C@@H]3C[C@@H]3F)c12` [DX-619] gave a Ki of 67.9 µM. This counts as double-digit micromolar.
